Assays:
[1] = Investigation of discoloration resistance (UV exposure, judged by eye); format: physicochemical; settings: in tap water, complexes diluted to 2% (10-40 ppm silver ion), silver compounds 40 ppm, UV 2 hr
[2] = tested on: (Candida Albicans ATCC 11651); test: Minimum growth inhibition concentration, test-tube dilution method; format: cell-based
Procedure: (§1) The minimum growth inhibition concentration was measured using test-tube dilution method in order to evaluate the antibacterial activity of the silver complexes obtained in Examples 1-5.

[3] = tested on: E. coli (Escherichia coli ATCC 25922); test: as above; format: cell-based; settings: E. coli ATCC 25922
Procedure: as §1

[4] = tested on: E. coli O-157 (Escherichia coli ATCC 43895); test: as above; format: cell-based; settings: E. coli O-157 ATCC 43895
Procedure: as §1

[5] = tested on: Staphylococcus aureus ATCC 25923; test: as above; format: cell-based
Procedure: as §1

[6] = tested on: Staphylococcus aureus ATCC 6538P; test: as above; format: cell-based
Procedure: as §1

[7] = tested on: Trichophyton rubrum ATCC 28188; test: as above; format: cell-based
Procedure: as §1

[8] = tested on: Yeast (Trentopholia odorata); test: as above; format: cell-based
Procedure: as §1

Compound: Silver-triethanolamine Complex [Example 4]
- Discoloration [1]: 3
- Minimum Growth Inhibition Concentration [2]: 1 ppm
- Minimum Growth Inhibition Concentration [3]: 1 ppm
- Minimum Growth Inhibition Concentration [4]: 3 ppm
- Minimum Growth Inhibition Concentration [5]: 5 ppm
- Minimum Growth Inhibition Concentration [6]: 5 ppm
- Minimum Growth Inhibition Concentration [7]: 2 ppm
- Minimum Growth Inhibition Concentration [8]: <1 ppm

Compound: O=[N+]([O-])[O-].[Ag+] [Silver nitrate solution, silver nitrate, reference compound]
- Discoloration [1]: 1

Compound: O=C([O-])c1ccccc1.[Ag+] [Silver benzoate solution, silver beiizoate, reference compound]
- Discoloration [1]: 1

Compound: Silver-diethanolamine Complex [Example 5]
- Discoloration [1]: 3
- Minimum Growth Inhibition Concentration [2]: 1 ppm
- Minimum Growth Inhibition Concentration [3]: 1 ppm
- Minimum Growth Inhibition Concentration [4]: 3 ppm
- Minimum Growth Inhibition Concentration [5]: 6 ppm
- Minimum Growth Inhibition Concentration [6]: 7 ppm
- Minimum Growth Inhibition Concentration [7]: 2 ppm
- Minimum Growth Inhibition Concentration [8]: <1 ppm

— US20030190370A1, “Antibacterial agents, and antibacterial and deodorizing solution comprising the same” (priority 2000, published 2003)
